Laboratory results from patent publication US20090118288A1, “N-Benzyl-Morpholine Derivatives as Modulators of the Chemokine Receptor” (ASTRAZENECA AB, priority 2005, published 2009).

Molecular target: T1, human recombinant CCR3 receptors (Homo sapiens, UniProt P51677)
T1 construct: expressed in transfected cells
T1 sequence (P51677 1-355): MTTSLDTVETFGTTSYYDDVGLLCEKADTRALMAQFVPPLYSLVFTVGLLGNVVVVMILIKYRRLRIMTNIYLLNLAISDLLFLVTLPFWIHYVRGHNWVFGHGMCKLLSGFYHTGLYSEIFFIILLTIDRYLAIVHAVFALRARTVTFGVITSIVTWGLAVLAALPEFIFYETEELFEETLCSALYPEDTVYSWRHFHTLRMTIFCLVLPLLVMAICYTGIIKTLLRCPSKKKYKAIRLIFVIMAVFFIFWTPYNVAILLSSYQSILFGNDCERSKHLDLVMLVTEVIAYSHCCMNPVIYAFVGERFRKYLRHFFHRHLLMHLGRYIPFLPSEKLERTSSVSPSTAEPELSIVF
Test: Compound affinity at human recombinant CCR3 receptors by radioligand competition on CHO-K1 cell membranes
Type: binding
Conditions: competition of 2 nM [3H]-4-(2,4-dichloro-3-methylphenoxy)-1'-[4-(methylsulfonyl)benzoyl]-1,4'-bipiperidine, 2 h at 37° C., mean of minimum 2 experiments; for Ki: Cheng-Prussof correction of pIC50, read-out: CCR3 pKi (converted)
Method: Determination of Compound Affinity at Human Recombinant CCR3 Receptors Assessed by Competition of [^3H]-4-(2,4-dichloro-3-methylphenoxy)-1′-[4-(methylsulfonyl)benzoyl]-1,4′-bipiperidine for CHO-K1 Cell Membranes In Vitro
Membranes, prepared from CHO-K1 cells stably expressing recombinant human CCR3, suspended in assay buffer (50 mM Tris-Base, pH 7.4; containing sodium chloride (100 mM) and magnesium chloride (2 mM)) were incubated in the presence of 2 nM [^3H]-4-(2,4-dichloro-3-methylphenoxy)-1′-[4-(methylsulfonyl)benzoyl]-1,4′-bipiperidine, along with vehicle (1% (v/v) DMSO), 4-(4-chloro-3-methylphenoxy)-1′-[2-(methylsulfonyl)benzoyl]-1,4′-bipiperidine (to define non-specific binding) or test compound for 2 h at 37° C. in round bottomed 96-well plates. The plates were then filtered onto GF/B filter plates, pre-soaked for 1 hour in plate-coating solution (0.3% (w/v) polyethylenimine, 0.2% (w/v) BSA in de-ionised water), using a 96-well plate Tomtec cell harvester. Four washes (250 μL) with wash buffer (50 mM Tris-Base, pH 7.4 containing sodium chloride (500 mM) and magnesium chloride (2 mM)) were performed at 4° C. to remove unbound radioactivity. Plates were dried and MicroScint-O (50 μL) was added to each well. The plates were sealed (TopSeal A) and filter-bound radioactivity was measured with a scintillation counter (TopCount, Packard BioScience) using a 1 minute counting protocol.
Specific binding was determined from values of the control wells minus the values for the NSB wells for each assay plate. pIC50 values were calculated using a four parameter logistic fit (where pIC50 is defined as the negative logarithm of the concentration of compound required for 50% reduction in specific [^3H]-4-(2,4-dichloro-3-methylphenoxy)-1′-[4-(methylsulfonyl)benzoyl]-1,4′-bipiperidine binding). Data were presented as mean pKi values (calculated by applying a Cheng-Prussof correction to pIC50 values) from a minimum of 2 separate experiments.

| Compound | Ki | CCR3 pKi (Cheng-Prussof correction of pIC50) |
| --- | --- | --- |
| O=C(CSc1ccc(C(=O)O)cc1C(F)(F)F)NC[C@H]1CN(Cc2ccc(Cl)c(Cl)c2)CCO1 [Example 8A, (S)-4-[[4-[(3,4-dichlorophenyl)methyl]morpholin-2-yl]methylcarbamoylmethylsulfanyl]-3-(trifluoromethyl)benzoic acid] | 200 pM |  |
| O=C(CSc1cccc(C(=O)O)c1)NC[C@H]1CN(Cc2ccc(Cl)c(Cl)c2)CCO1 [Example 6, (S)-3-[[4-[(3,4-dichlorophenyl)methyl]morpholin-2-yl]methylcarbamoylmethylsulfanyl]-benzoic acid] | 501 pM |  |
| O=C(CSc1ccc(C(=O)O)cc1)NC[C@H]1CN(Cc2ccc(Cl)c(Cl)c2)CCO1 [Example 2, (S)-4-[[4-[(3,4-dichlorophenyl)methyl]morpholin-2-yl]methylcarbamoylmethylsulfanyl]-benzoic acid] | 398 pM |  |
| 2-Amino-6-({[4-(3,4-dichloro-benzyl)-morpholin-2-ylmethyl]-carbamoyl}-methylsulfanyl)-5-fluoro-nicotinic acid [Example 29A] |  | 9.4 |
| O=C(CSc1ncc(C(=O)O)cc1Cl)NC[C@H]1CN(Cc2ccc(Cl)c(Cl)c2)CCO1 [Example 9A, (S)-5-chloro-6-[[4-[(3,4-dichlorophenyl)methyl]morpholin-2-yl]methylcarbamoylmethylsulfanyl]-nicotinic acid] | 251 pM |  |

Second part, the compound after the results:

| Ki | CCR3 pKi (Cheng-Prussof correction of pIC50) | Compound |
| --- | --- | --- |
| 251 pM |  | Cc1cc(CN2CCO[C@@H](CNC(=O)CSc3ccc(C(=O)O)cc3F)C2)ccc1Cl [Example 16A, 4-[[(2S)-4-[(4-chloro-3-methyl-phenyl)methyl]morpholin-2-yl]methylcarbamoylmethylsulfanyl]-3-fluoro-benzoic acid] |
| 200 pM |  | Cc1c(CN2CCOC(CNC(=O)CSc3nc(N)c(C(=O)O)cc3F)C2)ccc(Cl)c1Cl (centres unmarked) [Example 10A, 2-Amino-6-({[4-(3,4-dichloro-2-methyl-benzyl)-morpholin-2-ylmethyl]-carbamoyl}-methylsulfanyl)-5-fluoro-nicotinic Acid] |
| 1000 pM |  | Cc1cc(F)ccc1CN1CCO[C@@H](CNC(=O)CSc2ccc(C(=O)O)cc2F)C1 [Example 31A, 3-Fluoro-4-[[(2S)-4-[(4-fluoro-2-methyl-phenyl)methyl]morpholin-2-yl]methylcarbamoylmethylsulfanyl]benzoic Acid] |
